Earlier results as cited in patent US6492174B1, “Methods of initiating embryogenic cultures in plants” (Institute of Paper Science & Technology, priority 2000, dated 2002).

Columns and labels:
[1] = test system: Pinus embryogenic cultures; conditions: solid initiation media containing 30-90 mg/l ABA; cited from earlier work
[2] = test system: cultured cells of Onosma paniculatum; conditions: media containing 0.01 ppb brassinolide; cited from earlier work

For CC1=CC(=O)CC(C)(C)C1(O)/C=C/C(C)=C\C(=O)O (centres unmarked) [ABA, 5-(1-hydroxy-2,6,6,-trimethyl-4-oxo-2-cyclohexen-1-yl)-3-methyl-2,4-penta dienoic acid], the initiation frequencies [1] is given as 30-38%.
For CC(C)[C@H](C)[C@@H](O)[C@H](O)[C@@H](C)[C@H]1CC[C@H]2[C@@H]3COC(=O)[C@H]4C[C@H](O)[C@H](O)C[C@]4(C)[C@H]3CC[C@]12C [brassinolide], the “growth of cultured cells” value [2] is listed as “slightly increased growth”.
